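The compound was tested at five concentrations on cells cultured in 96-well plates, with a 48-hour exposure period. GI50 is the concentration that inhibits growth by half. TGI: concentration producing complete growth inhibition.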 *1 amine or outer side, *2 acyl side, *3 side chain or, on linkers, in order; H or OH if unused. Where a SMILES comes first, the peptide text is derived from it. Bridges are numbered along the chain shown (N, C = ends). [ ]: non-standard residue; d: D form. The star is where a group is joined. Phe(3,5-F2) = N[C@@H](Cc1cc(F)cc(F)c1)C(=O)O; Pro(4R-Me) = C[C@H]1CN[C@H](C(=O)O)C1; aThr = C[C@H](O)[C@H](N)C(=O)O; Pip = O=C(O)[C@@H]1CCCCN1; X10 = Fc1cc(C2CC2)ccc1N*; Abu = CC[C@H](N)C(=O)O; CO = O=C([*:1])[*:2]
Experiments:
Assay in all cases: DTP human tumour cell line panel, 48 h
[1] = test system: UACC-62 melanoma
[2] = test system: NCI-H23 lung
[3] = test system: SF-268 CNS
[4] = test system: U251 CNS
[5] = test system: CAKI-1 renal
[6] = test system: K-562 leukemia
[7] = test system: UO-31 renal
[8] = test system: HCT-116 colon
[9] = test system: OVCAR-4 ovarian
[10] = test system: DU-145 prostate
[11] = test system: MOLT-4 leukemia
[12] = test system: SK-MEL-2 melanoma
[13] = test system: ACHN renal
[14] = test system: KM12 colon
[15] = test system: SF-295 CNS
[16] = test system: HCC-2998 colon
[17] = test system: RXF 393 renal
[18] = test system: OVCAR-3 ovarian
[19] = test system: MDA-MB-231 breast
[20] = test system: NCI-H460 lung
[21] = test system: SNB-75 CNS
[22] = test system: T-47D breast
[23] = test system: A549 NSCLC
[24] = test system: TK-10 renal
[25] = test system: HOP-92 NSCLC
[26] = test system: RPMI-8226 leukemia
[27] = test system: A498 renal
[28] = test system: UACC-257 melanoma
[29] = test system: HL-60(TB) leukemia
[30] = test system: M14 melanoma
[31] = test system: NCI/ADR-RES ovarian
[32] = test system: HT29 colon
[33] = test system: HOP-62 NSCLC
[34] = test system: MDA-MB-435
[35] = test system: SK-MEL-28 melanoma
[36] = test system: SF-539 CNS
[37] = test system: BT-549 breast
[38] = test system: SN12C renal
[39] = test system: LOX IMVI melanoma
[40] = test system: HCT-15 colon
[41] = test system: SW-620 colon
[42] = test system: OVCAR-5 ovarian
[43] = test system: SNB-19 CNS
[44] = test system: MCF7 breast
[45] = test system: CCRF-CEM leukemia
[46] = test system: SR leukemia
[47] = test system: SK-MEL-5 melanoma
[48] = test system: 786-0 renal
[49] = test system: IGROV1 ovarian
[50] = test system: NCI-H226 lung
[51] = test system: OVCAR-8 ovarian
[52] = test system: PC-3 prostate
[53] = test system: SK-OV-3 ovarian
[54] = test system: MALME-3M melanoma
[55] = test system: COLO 205 colon
[56] = test system: HS 578T breast
[57] = test system: EKVX NSCLC
[58] = test system: NCI-H522 lung

Structure (SMILES): CC[C@@H]1NC(=O)[C@@H]2CCCCN2C(=O)[C@@H]2CCCN2C(=O)[C@@H](NC(=O)[C@H](Cc2cc(F)cc(F)c2)NC(=O)Nc2ccc(C3CC3)cc2F)[C@H](C)OC(=O)[C@@H]2C[C@@H](C)CN2C1=O ({X10-CO}-[Phe(3,5-F2)][aThr]P[Pip][Abu][Pro(4R-Me)]; ester 2-C)
- GI50 [1]: 0.0813 µM
- TGI [1]: 2.7 µM
- GI50 [2]: 0.0659 µM
- TGI [2]: > 28.6 µM
- GI50 [3]: 0.0591 µM
- TGI [3]: > 49.6 µM
- GI50 [4]: 0.0524 µM
- TGI [4]: > 56.6 µM
- GI50 [5]: 0.0547 µM
- TGI [5]: 7.25 µM
- GI50 [6]: 0.0391 µM
- TGI [6]: > 100 µM
- GI50 [7]: 0.326 µM
- TGI [7]: 9.47 µM
- GI50 [8]: 0.0427 µM
- TGI [8]: 1.61 µM
- GI50 [9]: 0.0372 µM
- TGI [9]: 3.26 µM
- GI50 [10]: 0.0593 µM
- TGI [10]: > 100 µM
- GI50 [11]: 0.271 µM
- TGI [11]: > 30 µM
- GI50 [12]: 0.0902 µM
- TGI [12]: 2.57 µM
- GI50 [13]: 0.237 µM
- TGI [13]: 6.84 µM
- GI50 [14]: 0.258 µM
- TGI [14]: 3.86 µM
- GI50 [15]: 0.0552 µM
- TGI [15]: 1.54 µM
- GI50 [16]: 0.0619 µM
- TGI [16]: 1.62 µM
- GI50 [17]: 0.419 µM
- TGI [17]: 2.79 µM
- GI50 [18]: 0.0463 µM
- TGI [18]: 2.03 µM
- GI50 [19]: 0.0447 µM
- TGI [19]: 1.5 µM
- GI50 [20]: 0.0459 µM
- TGI [20]: 2.62 µM
- GI50 [21]: 0.0667 µM
- TGI [21]: 6.19 µM
- GI50 [22]: 0.0627 µM
- TGI [22]: 8.16 µM
- GI50 [23]: 0.0625 µM
- TGI [23]: > 65 µM
- GI50 [24]: 0.954 µM
- TGI [24]: > 39.1 µM
- GI50 [25]: 0.0547 µM
- TGI [25]: 4.06 µM
- GI50 [26]: 0.0323 µM
- TGI [26]: 1.67 µM
- GI50 [27]: 0.032 µM
- TGI [27]: 1.06 µM
- GI50 [28]: 0.0483 µM
- TGI [28]: 6.26 µM
- GI50 [29]: 0.0399 µM
- TGI [29]: 1.65 µM
- GI50 [30]: 0.0501 µM
- TGI [30]: 1.86 µM
- GI50 [31]: 0.505 µM
- TGI [31]: > 38.1 µM
- GI50 [32]: 0.0709 µM
- TGI [32]: 5.49 µM
- GI50 [33]: 0.0658 µM
- TGI [33]: > 86.2 µM
- GI50 [34]: 0.049 µM
- TGI [34]: 1.72 µM
- GI50 [35]: 0.178 µM
- TGI [35]: 2.42 µM
- GI50 [36]: 0.137 µM
- TGI [36]: 2.46 µM
- GI50 [37]: 0.0905 µM
- GI50 [38]: 0.0429 µM
- TGI [38]: > 33.8 µM
- GI50 [39]: 0.0748 µM
- TGI [39]: 4.38 µM
- GI50 [40]: 0.22 µM
- TGI [40]: 2.25 µM
- GI50 [41]: 0.0679 µM
- TGI [41]: > 43.2 µM
- GI50 [42]: 0.0679 µM
- TGI [42]: 2.63 µM
- GI50 [43]: 0.0443 µM
- TGI [43]: > 56.5 µM
- GI50 [44]: 0.0437 µM
- TGI [44]: 14.9 µM
- GI50 [45]: 0.0603 µM
- TGI [45]: > 100 µM
- GI50 [46]: 0.115 µM
- TGI [46]: 3.38 µM
- GI50 [47]: 0.0592 µM
- TGI [47]: 1.21 µM
- GI50 [48]: 0.205 µM
- TGI [48]: 15.8 µM
- GI50 [49]: 0.223 µM
- TGI [49]: > 36.7 µM
- GI50 [50]: 0.0632 µM
- TGI [50]: 2.57 µM
- GI50 [51]: 0.0427 µM
- TGI [51]: > 100 µM
- GI50 [52]: 0.0396 µM
- TGI [52]: 13 µM
- GI50 [53]: 0.0642 µM
- TGI [53]: 9.83 µM
- GI50 [54]: 0.108 µM
- TGI [54]: 2.93 µM
- GI50 [55]: 0.0397 µM
- TGI [55]: 1.29 µM
- GI50 [56]: 0.083 µM
- TGI [56]: 4.98 µM
- GI50 [57]: 0.0767 µM
- TGI [57]: > 100 µM
- GI50 [58]: 0.056 µM
- TGI [58]: 8.48 µM

Structure (SMILES): Cc1cc(I)cc(CN(C)CCN2CCOCC2)c1O
- GI50 [1]: > 66.1 µM
- TGI [1]: > 100 µM
- GI50 [2]: 62.7 µM
- TGI [2]: > 100 µM
- GI50 [3]: 59.5 µM
- TGI [3]: > 100 µM
- GI50 [4]: 49.7 µM
- TGI [4]: > 100 µM
- GI50 [5]: > 61.4 µM
- TGI [5]: > 100 µM
- GI50 [6]: 28.4 µM
- TGI [6]: > 100 µM
- GI50 [7]: 45.2 µM
- TGI [7]: > 100 µM
- GI50 [8]: 30.4 µM
- TGI [8]: > 100 µM
- GI50 [9]: 53.2 µM
- TGI [9]: > 100 µM
- GI50 [10]: 61 µM
- TGI [10]: > 100 µM
- GI50 [11]: 35.7 µM
- TGI [11]: > 100 µM
- GI50 [12]: > 100 µM
- TGI [12]: > 100 µM
- GI50 [13]: 60.2 µM
- TGI [13]: > 100 µM
- GI50 [14]: 44.5 µM
- TGI [14]: > 100 µM
- GI50 [15]: 29.8 µM
- TGI [15]: > 82.3 µM
- GI50 [16]: > 80.8 µM
- TGI [16]: > 100 µM
- GI50 [17]: > 88 µM
- TGI [17]: > 100 µM
- GI50 [18]: 49.9 µM
- TGI [18]: > 100 µM
- GI50 [19]: 97.9 µM
- TGI [19]: > 100 µM
- GI50 [20]: 43.4 µM
- TGI [20]: > 100 µM
- GI50 [21]: 53.5 µM
- TGI [21]: > 100 µM
- GI50 [22]: 27.5 µM
- TGI [22]: > 100 µM
- GI50 [23]: 54.6 µM
- TGI [23]: > 100 µM
- GI50 [24]: > 76.8 µM
- TGI [24]: > 100 µM
- GI50 [25]: 38 µM
- TGI [25]: > 100 µM
- GI50 [26]: 30.2 µM
- TGI [26]: > 100 µM
- GI50 [27]: 43.3 µM
- TGI [27]: > 96.3 µM
- GI50 [28]: 99.5 µM
- TGI [28]: > 100 µM
- GI50 [29]: 25.8 µM
- TGI [29]: 66.6 µM
- GI50 [30]: 79.3 µM
- TGI [30]: > 100 µM
- GI50 [31]: 59.8 µM
- TGI [31]: > 100 µM
- GI50 [32]: 33.4 µM
- TGI [32]: > 100 µM
- GI50 [33]: 64.7 µM
- TGI [33]: > 100 µM
- GI50 [34]: 67.3 µM
- TGI [34]: > 100 µM
- GI50 [35]: > 78.1 µM
- TGI [35]: > 100 µM
- GI50 [36]: > 100 µM
- TGI [36]: > 100 µM
- GI50 [37]: 43.7 µM
- TGI [37]: > 100 µM
- GI50 [38]: > 68 µM
- TGI [38]: > 100 µM
- GI50 [39]: 65 µM
- TGI [39]: > 100 µM
- GI50 [40]: 38.8 µM
- TGI [40]: > 100 µM
- GI50 [41]: 55.2 µM
- TGI [41]: > 100 µM
- GI50 [42]: > 100 µM
- TGI [42]: > 100 µM
- GI50 [43]: > 87.1 µM
- TGI [43]: > 100 µM
- GI50 [44]: 44.1 µM
- TGI [44]: > 100 µM
- GI50 [45]: 0.87 µM
- GI50 [46]: 12.5 µM
- TGI [46]: 97.7 µM
- GI50 [47]: 35.3 µM
- TGI [47]: > 85.6 µM
- GI50 [48]: > 100 µM
- TGI [48]: > 100 µM
- GI50 [49]: 37.2 µM
- TGI [49]: > 100 µM
- GI50 [50]: > 76.9 µM
- TGI [50]: > 100 µM
- GI50 [51]: 75.1 µM
- TGI [51]: > 100 µM
- GI50 [52]: 34.9 µM
- TGI [52]: > 100 µM
- GI50 [53]: > 100 µM
- TGI [53]: > 100 µM
- GI50 [54]: > 78.8 µM
- TGI [54]: > 100 µM
- GI50 [55]: 71.6 µM
- TGI [55]: > 100 µM
- GI50 [56]: 23.4 µM
- TGI [56]: > 72.5 µM
- GI50 [57]: 47.1 µM
- TGI [57]: > 100 µM
- GI50 [58]: 79 µM
- TGI [58]: > 100 µM

Source: PubChem BioAssay (NCI)
